Format in all cases: cell-based
Data set [1] deals with T1, Voltage-gated inwardly rectifying potassium channel KCNH2 (Homo sapiens, UniProt Q12809, Y652A). Briefly: Inhibition of human ERG Y652A mutant channel expressed in HEK293 cells assessed as blockade of potassium tail current by whole-cell patch clamp technique. Background: The patch-clamp technique gives a direct electrical read-out from membranes.
Data set [2] addresses Voltage-gated inwardly rectifying potassium channel KCNH2 (Homo sapiens, UniProt Q12809, F656A). The data set can be described thus: Inhibition of human ERG F656A mutant channel expressed in HEK293 cells assessed as blockade of potassium tail current by whole-cell patch clamp technique.
In data set [3] the target is T2, Voltage-gated inwardly rectifying potassium channel KCNH2 (Homo sapiens, UniProt Q12809). Briefly: Inhibition of wild-type human ERG channel expressed in HEK293 cells assessed as blockade of potassium tail current by whole-cell patch clamp technique.
For data set [4], the target named is T2, Voltage-gated inwardly rectifying potassium channel KCNH2. The data set can be described thus: Inhibition of wild-type human ERG channel expressed in CHO cells by whole-cell patch clamp technique.
Data set [5] concerns the target T1, Voltage-gated inwardly rectifying potassium channel KCNH2. The data set can be described thus: Inhibition of human ERG Y652A mutant channel expressed in CHO cells by whole-cell patch clamp technique.
Data set [6] concerns the target Voltage-gated inwardly rectifying potassium channel KCNH2 (Homo sapiens, UniProt Q12809, V659A). Briefly: Inhibition of human ERG V659A mutant channel expressed in HEK293 cells assessed decrease in blockade of potassium tail current at 1 mM by whole-cell patch clamp technique. The following applies: hek293, 1000 µM.
Data set [7] has as its system HEK293. Briefly: Ratio IC50 for human ERG Y652A mutant channel expressed in HEK293 cells to IC50 for wild-type human ERG channel expressed in HEK293 cells.
In data set [8] the test system is HEK293. The data set can be described thus: Ratio IC50 for human ERG F656A mutant channel expressed in HEK293 cells to IC50 for wild-type human ERG channel expressed in HEK293 cells.

Structures can show the parent of a compound that is named as a salt.

What is called IC50 is the concentration that inhibits the measured activity by half.

`CCCCN1CCCC[C@H]1C(=O)Nc1c(C)cccc1C` [LEVOBUPIVACAINE HYDROCHLORIDE]: the IC50 is 278 µM in data set [1]; 1010 µM in data set [2]; 13 µM in data set [3]; 13 µM in data set [4]; 83 µM in data set [5].
As for `CCCCN1CCCC[C@@H]1C(=O)Nc1c(C)cccc1C`, the IC50 in data set [1] is 276 µM; in data set [2], 758 µM; in data set [3] it was 84 µM.
Regarding `CCCCN1CCCCC1C(=O)Nc1c(C)cccc1C.Cl` (racemic) [BUPIVACAINE HYDROCHLORIDE], the IC50 in data set [1] amounted to 265 µM; in data set [2], 866 µM; in data set [3], 32 µM; in data set [4] it was 22 µM; in data set [5], 95 µM. Further, in data set [6], the “inhibition (INH)” value is recorded as “Active”. Besides, the Ratio IC50 worked out at 10 in the data set on HEK293 [7] and 30 in the data set on HEK293 [8].

(Values after ChEMBL document CHEMBL1817657, “Block of the hERG channel by bupivacaine: Electrophysiological and modeling insights towards stereochemical optimization” (Eur J Med Chem, 2011).)
